The record followed here is patent publication US20210205404A1, “PHARMACEUTICAL COMPOSITION OF KOR RECEPTOR AGONIST” (JIANGSU HENGRUI MEDICINE CO., LTD., priority 2018, published 2021).

Where two headings read alike, the source gives them in different places. Square brackets hold non-standard residues; d marks the D form. Peptide text beside a SMILES is read from it. * marks the point of attachment. Gly(N-(2R-Ph-propyl)) = C[C@@H](CNCC(=O)O)c1ccccc1; Piperidin1yl(4-NH2,4-COOH) = NC1(C(=O)O)CCN(*)CC1

The procedure of data set [1]:
High performance liquid chromatography (HPLC) was determined on an Agilent 1200DAD high pressure liquid chromatograph (Sunfire C18 150×4.6 mm column) and Waters 2695-2996 high pressure liquid chromatograph (Gimini C18 150×4.6 mm column).
The study period was 20 days.

Data set [2] is described as follows: Solubility of the active ingredient (statement). The class given is physicochemical. The settings on record: free compound, background statement.

With `CC(C)C[C@@H](NC(=O)[C@@H](Cc1ccccc1)NC(=O)CNC[C@H](C)c1ccccc1)C(=O)N[C@H](CCCCN)C(=O)N1CCC(N)(C(=O)O)CC1.Cl.Cl.Cl` [Hydrochloride (1:3), 4-Amino-N—[N^2—[N—[N—[N-((R)-2-phenylpropyl)glycyl]-D-phenylalanyl]-D-leucyl]-D-lysyl]piperidine-4-carboxylic acid hydrochloride (1:3)] (H-[Gly(N-(2R-Ph-propyl))][dF][dL][dK]-{Piperidin1yl(4-NH2,4-COOH)}), the Purity % in data set [1] (40° C., 5 days) came to 96.54%; in data set [1] (40° C., 10 days), 96.42%; in data set [1] (40° C., 20 days) it was 96.41%; in data set [1] (60° C., 5 days), 96.42%; in data set [1] (60° C., 10 days) it was 96.43%; in data set [1] (60° C., 20 days), 96.41%. The Purity % in data set [1] (4500 Lux, 0 day (start value)) came out at 96.50%; in data set [1] (4500 Lux, 5 days) it was 95.57%; in data set [1] (4500 Lux, 10 days), 94.27%; in data set [1] (4500 Lux, 20 days) it was 94.24%. Moreover, the “Stability of the salt (conclusion in words)” value in data set [1] (lighting, 40° C. and 60° C., 20 days) is “good stability”.
Turning to `CC(C)C[C@@H](NC(=O)[C@@H](Cc1ccccc1)NC(=O)CNC[C@H](C)c1ccccc1)C(=O)N[C@H](CCCCN)C(=O)N1CCC(N)(C(=O)O)CC1` [Compound A, 4-amino-N—[N^2—[N—[N—[N-((R)-2-phenylpropyl)glycyl]-D-phenylalanyl]-D-leucyl]-D-lysyl]piperidine-4-carboxylic acid] (H-[Gly(N-(2R-Ph-propyl))][dF][dL][dK]-{Piperidin1yl(4-NH2,4-COOH)}), the “Solubility (in words)” value in data set [2] is recorded as “low solubility”.
